Measured values as given in ChEMBL document CHEMBL2176972, “Potential use of selective and nonselective Pim kinase inhibitors for cancer therapy” (J Med Chem, 2012).
Blank lines part the entries; values can stand above or below the molecule they belong to.

Experiments:
[1] = target: Serine/threonine-protein kinase pim-2 (Homo sapiens, UniProt Q9P1W9); assay: Competitive inhibition of PIM2 in presence of ATP
[2] = target: Serine/threonine-protein kinase pim-1 (Homo sapiens, UniProt P11309); assay: Competitive inhibition of PIM1 using KKRNRTLTV as substrate after 5 mins by scintillation counter in presence of [gamma-32P]ATP
[3] = target: Casein kinase II subunit alpha (Homo sapiens, UniProt P68400); assay: Competitive inhibition of CK2alpha using RRREDEESDDEE as substrate after 5 mins by scintillation counter in presence of [gamma-32P]ATP
[4] = target: T1, Serine/threonine-protein kinase haspin (Homo sapiens, UniProt Q8TF76); assay: Inhibition of haspin
T1 sequence (Q8TF76 whole entry): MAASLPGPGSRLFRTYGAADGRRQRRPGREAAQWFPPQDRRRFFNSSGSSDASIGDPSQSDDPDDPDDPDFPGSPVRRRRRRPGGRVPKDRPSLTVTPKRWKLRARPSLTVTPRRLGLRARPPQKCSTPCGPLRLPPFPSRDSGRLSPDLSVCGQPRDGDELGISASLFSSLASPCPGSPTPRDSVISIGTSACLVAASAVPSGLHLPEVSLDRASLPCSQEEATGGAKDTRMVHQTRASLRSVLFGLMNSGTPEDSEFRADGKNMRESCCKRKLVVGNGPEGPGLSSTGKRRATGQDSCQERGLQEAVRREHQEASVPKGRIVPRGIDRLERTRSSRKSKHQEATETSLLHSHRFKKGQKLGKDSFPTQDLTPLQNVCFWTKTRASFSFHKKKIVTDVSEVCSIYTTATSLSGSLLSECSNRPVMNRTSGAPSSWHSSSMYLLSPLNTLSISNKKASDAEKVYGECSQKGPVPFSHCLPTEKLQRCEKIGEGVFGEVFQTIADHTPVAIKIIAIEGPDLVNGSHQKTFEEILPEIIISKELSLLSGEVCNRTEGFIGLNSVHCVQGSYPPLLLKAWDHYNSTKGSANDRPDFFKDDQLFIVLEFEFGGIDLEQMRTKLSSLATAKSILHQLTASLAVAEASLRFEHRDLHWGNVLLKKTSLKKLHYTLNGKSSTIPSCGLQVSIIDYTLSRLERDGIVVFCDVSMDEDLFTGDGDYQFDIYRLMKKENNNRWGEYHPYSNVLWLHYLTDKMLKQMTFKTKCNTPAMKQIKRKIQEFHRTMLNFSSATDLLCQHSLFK

Ki [1]: 0.1 µM
Compound: O=C1NC(=O)/C(=C/c2cccc(C(F)(F)F)c2)S1

IC50 [2]: 0.02 µM
IC50 [3]: 0.063 µM
Compound: O=C(O)c1cc2c(ccc3cc4c(ccc5oc(C(=O)O)cc54)cc32)o1

IC50 [4]: 0.034 µM
Compound: CN1CCC(CNc2ccc3ncc(-c4cccc(OC(F)(F)F)c4)n3n2)CC1 [SGI-1776]
